Consider eleven molecules from US20220194960A1, “WEE1 INHIBITOR AND PREPARATION AND USE THEREOF” (SHOUYAO HOLDINGS (BEIJING) CO., LTD., priority 2019, published 2022).

Read-outs that look alike come from different tables or passages of the source.

A short description of data set [1]: Animal pharmacokinetic studies in rats. It counts as in vivo. As to conditions: male rats, 5 mg/kg single intragastric administration, plasma. How it is done:
3. Animal Pharmacokinetic Studies of Compounds:
Animal pharmacokinetic experiments were conducted with 3 healthy adult male rats from Beijing Vital River Laboratory Animal Technology Co., Ltd. The compound was suspended in a 20% solution of sulfobutyl ether-β-cyclodextrin (W/W/V) at a concentration of 1 mg/mL, The rats were subjected to 5 mg/kg suspension of the compound by single intragastric administration with a dosing volume of 5 mL/kg. Animals were fasted overnight prior to the experiment from 10 h before dosing to 4 h alter dosing. Blood was collected 0.25, 0.5, 1, 2, 4, 6, 8 and 24 h after administration. Animals were lightly anesthetized with isoflurane, and approximately 0.4 ml, of whole blood was collected from the orbital venous plexus with a glass blood collection tube, placed in a heparin anticoagulant tube, centrifuged at 4200 rpm for 5 min at 4° C., plasma transferred to the centrifuge tube, and stored at −80° C. until analysis. Test compounds extracted from rat plasma using acetonitrile protein precipitation and internal standard (Warfarin or Propranolol) were used for Plasma sample analysis, and the extracts were analyzed by LC/MS/MS. The measured plasma concentration-time data for individual animals were analyzed using non-compartmental model of WinNonlin (version 5.2.1; Pharsight) software to obtain the following pharmacokinetic parameters: maximum (peak) plasma drug concentration Cmax; a peak time Tmax; half-life T1/2 and the area under the plasma concentration-time curve front time 0 extrapolated to infinite time AUC0-inf.

For the next data set, the target named is T1, WEE1 kinase (Homo sapiens, UniProt P30291).
T1 construct: purchased Carna bioscience
T1 sequence (P30291 whole entry): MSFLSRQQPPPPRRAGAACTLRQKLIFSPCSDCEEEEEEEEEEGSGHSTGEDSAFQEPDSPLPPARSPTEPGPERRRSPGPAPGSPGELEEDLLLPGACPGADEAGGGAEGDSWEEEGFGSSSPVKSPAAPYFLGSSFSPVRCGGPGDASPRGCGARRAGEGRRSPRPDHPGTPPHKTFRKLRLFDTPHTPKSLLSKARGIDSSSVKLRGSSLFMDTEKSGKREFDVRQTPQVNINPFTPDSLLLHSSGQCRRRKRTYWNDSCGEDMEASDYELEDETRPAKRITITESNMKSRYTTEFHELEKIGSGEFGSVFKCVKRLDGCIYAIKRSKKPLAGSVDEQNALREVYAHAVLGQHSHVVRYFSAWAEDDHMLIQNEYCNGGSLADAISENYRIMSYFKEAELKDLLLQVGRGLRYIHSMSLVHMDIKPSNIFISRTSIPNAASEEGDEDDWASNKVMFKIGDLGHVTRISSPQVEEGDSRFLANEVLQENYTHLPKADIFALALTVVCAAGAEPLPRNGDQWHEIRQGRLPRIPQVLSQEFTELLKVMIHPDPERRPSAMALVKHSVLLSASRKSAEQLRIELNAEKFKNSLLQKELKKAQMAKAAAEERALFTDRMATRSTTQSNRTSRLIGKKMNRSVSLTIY
As to the kind of experiment: WEE1 kinase binding assay (LanthaScreen EU). Particulars: WEE1 kinase 20 nM, Kinase Tracer 178 100 nM, 23° C. for 60 min, read-out: WEEI (IC50). How it is done:
1. Assay for WEE1 Kinase Inhibitory Activity (IC50) on Compounds
The WEE1 kinase binding assay was established and optimized with LanthaScreen EU for the determination of the activity of compounds. 10 mM compounds were subjected to ten-fold gradient dilution in 100% DMSO (6 concentrations in total), 5 μL of diluent from each concentration was added to 45 μL of reaction buffer (50 mM HEPES (4-hydroxyethylpiperazine ethanesulfonic acid), pH 7.5, 10 mM MgCl2 (magnesium chloride), 1 mM EGTA (ethylene glycol diethyl ether diamine tetraacetic acid), 0.01% Brij-35 (polyoxyethylene lauryl ether)) for blending. On this basis, 2 μL diluent from each concentration was added to 48 μL of reaction buffer for blending as a 4*compound (final concentrations of 1000, 100, 10, 1, 0.1, 0 nM) for later use. Reaction buffer was used to formulate 4*WEE1 kinase (purchased from Carna bioscience, a final concentration of 20 nM), 4*LanthaScreen EU-anti-GST Antibody (purchased from Invitrogen, PV5594, a fuel concentration of 2 nM), and 4*Kinase Tracer 178 (purchased from Invitrogen, PV5593, a final concentration of 100 nM). 2.5 μL of 4*compound was added to a 384-well plate (OptiPlate-384, purchased from PerkinElmer), followed by adding 2.5 μL of 4*WEE1 kinase, standing for 5 min at room temperature. Then 2.5 μL of 4*LanthaScreen EU-anti-GST Antibody was added followed by 2.5 μL of 4*Kinase Tracer 178. The reaction was started by centrifugation (a total reaction volume of 10 μL). The 384-well plate was wrapped with tin foil paper and placed in an incubator at 23° C. for 60 min. Fluorescence values (excitation at 320 nm, detecting emitted light at 665 nm and 615 nm, and a ratio of the two as enzyme activity) were read on Envision (purchased from PerkinElmer). The enzyme activity of each compound was measured at 6 concentrations, and the IC50 value of the compound was calculated using GraFit6.0 software (Erithacus Software).
The aforementioned “*” refers to multiplying, representing multiples.

The subject of data set [2] is Human non-small cell lung cancer cells NCI-H1299. Nature of the data set: NCI-H1299 cell proliferation inhibition (CellTiter-Glo). It counts as cell-based. Particulars: Homo sapiens, 72 h, cultured 3 days, table head NCI-H1975, method NCI-H1299. How it is done: 2. Determination of Cell Proliferation Activity of Compounds:
NCI-H1299 cell proliferation inhibition screening method was established using CellTiter-fib detection reagent from Promega.
Human non-small cell lung cancer cells NCI-H1299 were cultured in 25 cm^2 or 75 cm^2 plastic tissue culture flasks (Corning) filled with DMEM (Gibco) medium supplemented with 10% fetal bovine serum (Hyclone) under 37° C., 95% air, and 5% CO2, and subcultured 2-3 times a week.
Cells were seeded at 1000 cells/well in a 96-well cell culture plate (Corning), 195 μL/well, and cultured under 37° C., 95% air, and 5% CO2. The next day test compound was added: 10 mM compounds (dissolved in DMSO) were subjected to 3-fold gradient dilution in DMSO, 2 μL of diluent from each concentration was added to 48 μL of serum-fret medium, and finally 5 μL of the diluted compound was added to the plate seeded with cells. The final concentration of DMSO in the cell culture was 0.1% and the foul concentration of the test compound was 0.3 nM-10 μM. The cells were cultured at 37° C. for 3 days.

For the molecule `Cc1cc2cnc(Nc3ccc(N4CCC(N5CCN(C)CC5)CC4)cc3)nc2n1-c1cccc(C(C)(C)O)n1` [Example 148, 2-(6-(6-methyl-2-((4-(4-(4-methylpiperazin-1-yl)piperidin-1-yl)phenyl)amino)-7H-pyrrolo[2,3-d]pyrimidin-7-yl)pyridin-2-yl)propan-2-ol], the half-life in data set [1] (rat, po) is 9.2 h. Also, the AUC(0-inf) in data set [1] (rat, po, read-out: AUC0-inf) was found to be 1100 ng·h/mL. For the same molecule, in data set [1] (rat, po, read-out: Cmax), the highest concentration (Cmax) is 64 ng/mL. Further, the Tmax in data set [1] (rat, po, read-out: Tmax) was determined as 5.4 h.
Consider `CCCc1cc2cnc(Nc3ccc(N4CCC5(CCN(C)CC5)CC4)cc3)nc2n1-c1cccc(C(C)(C)O)n1` [Example 124, 2-(6-(6-propyl-2-((4-(9-methyl-3,9-diazaspiro[5.5]undecan-3-yl)phenyl)amino)-7H-pyrrolo[2,3-d]pyrimidin-7-yl)pyridin-2-yl)propan-2-ol], for which the IC50 at WEE1 kinase was 1.03 nM. Besides, in data set [1], the AUC(0-inf) came to 4066 ng·h/mL, the Cmax amounted to 163 ng/mL, the T1/2 was found to be 19.2 h and the Tmax was 4.8 h.
Turning to `CN1CCN(C2CCN(c3ccc(Nc4ncc5c(F)c(C6CC6)n(-c6cccc(C(C)(C)O)n6)c5n4)cc3)CC2)CC1` [Example 58, 2-(6-(2-((4-(4-(4-methylpiperazin-1-yl)piperidin-1-yl)phenyl)amino)-5-fluoro-6-cyclopropyl-7H-pyrrolo[2,3-d]pyrimidin-7-yl)pyridin-2-yl)propan-2-ol], in data set [1], the AUC(0-inf) came to 1751 ng·h/mL, the Cmax was 83 ng/mL, the T1/2 turned out to be 10.9 h and the Tmax was determined as 6.0 h.
Consider `CN1CCN(c2ccc(Nc3ncc4c(F)c(C5CC5)n(-c5cccc(C(C)(C)O)n5)c4n3)cc2)CC1` [Example 57, 2-(6-(2-((4-(4-methylpiperazin-1-yl)phenyl)amino)-5-fluoro-6-cyclopropyl-7H-pyrrolo[2,3-d]pyrimidin-7-yl)pyridin-2-yl)propan-2-ol], for which, in data set [1] (rat, po), the half-life was 11.2 h. In addition, in data set [1] (rat, po, read-out: AUC0-inf), the AUC(0-inf) was 1080 ng·h/mL. For the same molecule, in data set [1] (rat, po, read-out: Cmax), the Cmax turned out to be 68 ng/mL. In addition, the Tmax in data set [1] (rat, po, read-out: Tmax) was determined as 2.3 h.
With `CN1CCN(C2CCN(c3ccc(Nc4ncc5cc(C6CC6)n(-c6cccc(C(C)(C)O)n6)c5n4)cc3)CC2)CC1` [Example 56, 2-(6-(2-((4-(4-(4-methylpiperazin-1-yl)piperidin-1-yl)phenyl)amino)-6-cyclopropyl-7H-pyrrolo[2,3-d]pyrimidin-7-yl)pyridin-2-yl)propan-2-ol], in data set [1] (rat, po), the half-life is 7.6 h. Also, the AUC(0-inf) in data set [1] (rat, po, read-out: AUC0-inf) turned out to be 1420 ng·h/mL. Also, the peak concentration (Cmax) in data set [1] (rat, po, read-out: Cmax) was 116 ng/mL. The time of peak concentration (Tmax) in data set [1] (rat, po, read-out: Tmax) amounted to 4 h.
For `CN1CCN(C2CCN(c3ccc(Nc4ncc5cc(C6CC6)n(-c6cccc(C(C)(C)O)n6)c5n4)cc3F)CC2)CC1` [Example 77, 2-(6-(2-((3-fluoro-4 (4-(4-methylpiperazin-1-yl)piperidin-1-yl)phenyl)amino)-6-cyclopropyl-7H-pyrrolo[2,3-d]pyrimidin-7-yl)pyridin-2-yl)propan-2-ol], in that order: 13.6 h, 2340 ng·h/mL, 98 ng/mL and 5.33 h.
With `CCCc1c(F)c2cnc(Nc3ccc(N4CCN(C)CC4)cc3)nc2n1-c1cccc(N=S(C)(C)=O)n1` [Example 1, ((6-(5-fluoro-2-((4-(4-methylpiperazin-1-yl)phenyl)amino)-6-propyl-7H-pyrrolo[2,3-d]pyrimidin-7-yl)pyridin-2-yl)imino)dimethyl-λ^6-sulfanone], the IC50 at WEE1 kinase amounted to 0.57 nM; in data set [2], 43 nM.
The corresponding values for `Cc1cc2cnc(Nc3ccc(N4CCC5(CCN(C)CC5)CC4)cc3)nc2n1-c1cccc(C(C)(C)O)n1` [Example 147, 2-(6-(6-methyl-2-((4-(9-methyl-3,9-diazaspiro[5.5]undecan-3-yl)phenyl)amino)-7H-pyrrolo[2,3-d]pyrimidin-7-yl)pyridin 2-yl)propan-2-ol] are 0.91 nM and 85 nM.
The corresponding values for `Cc1cc2cnc(Nc3ccc(N4CCN(CCN(C)C)CC4)cc3)nc2n1-c1cccc(N=S(C)(C)=O)n1` [Example 151, ((6-(2-((4-(4-(2-(dimethylamino)ethyl)piperazin-1-yl)phenyl)amino)-6-methyl-7H-pyrrolo[2,3-d]pyrimidin-7-yl)pyridin-2-yl)imino)dimethyl-λ^6-sulfanone] are 0.6 nM and 66 nM.
For `CN1CCC2(CC1)CCN(c1ccc(Nc3ncc4c(F)c(C5CC5)n(-c5cccc(N=S(C)(C)=O)n5)c4n3)cc1)CC2` [Example 126, ((6-(6-cyclopropyl-5-fluoro-2-((4-(9-methyl-3,9-diazaspiro(5.5)undecan-3-yl)phenyl)amino)-7H-pyrrolo[2,3-d]pyrimidin-7-yl)pyridin-2-yl)imino)dimethyl-λ^6-sulfanone], in that order: 0.48 nM and 53 nM.
Take `Cc1cc(Nc2ncc3cc(C4CC4)n(-c4cccc(N=S(C)(C)=O)n4)c3n2)ccc1N1CCC(N2CCN(C)CC2)CC1` [Example 52, ((6-(2-((3-methyl-4-(4-(4-methylpiperazin-1-yl)piperidin-1-yl)phenyl)amino)-6-cyclopropyl-7H-pyrrolo[2,3-d]pyrimidin-7-yl)pyridin-2-yl)imino)dimethyl-λ^6-sulfanone]: the IC50 on WEE1 kinase is 0.63 nM; in data set [2] it was 56 nM.
